Measurements as given in patent publication US10131652B2, “Pyrimidinyloxy benzene derivatives as herbicides” (E. I. DU PONT DE NEMOURS AND COMPANY, priority 2014, dated 2018).

How the values were obtained:
Assay type in all cases: in vivo
[1] = system: lambsquarters (Chenopodium album); test: Test D pre-/postemergence plant response; conditions: for Plant response rating, Lambsquarters: scale 0 to 100, 0 no effect, 100 complete control
Outline: (§1)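 Visual rating, 0–100 scale (0 = no effect, 100 = complete control), versus untreated controls 13 to 15 days after treatment in greenhouse. Preemergence: seeds in loam/sand soil. Postemergence: 2 to 18 cm plants, 1- to 4-leaf stage, peat-based medium. Compounds formulated in non-phytotoxic solvent plus surfactant.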

[2] = system: galium (catchweed bedstraw, Galium aparine); test: Test D pre-/postemergence plant response; conditions: for Plant response rating, Galium: scale 0 to 100, 0 no effect, 100 complete control
Outline: as §1

[3] = system: velvetleaf (Abutilon theophrasti); test: Test D pre-/postemergence plant response
Outline: as §1

[4] = system: oilseed rape (Brassica napus); test: Test D pre-/postemergence plant response
Outline: as §1

[5] = system: Italian ryegrass (Lolium multiflorum); test: Test D pre-/postemergence plant response; conditions: for Plant response rating, Ryegrass, Italian: scale 0 to 100, 0 no effect, 100 complete control
Outline: as §1

corn (Zea mays) = test: Test D pre-/postemergence plant response; conditions: for Corn plant response rating / Plant response rating, Corn: Postemergence; for Plant response rating, Corn: scale 0 to 100, 0 no effect, 100 complete control
Outline: as §1

[6] = system: winter wheat (Triticum aestivum); test: Test D pre-/postemergence plant response; conditions: for Plant response rating, Wheat: scale 0 to 100, 0 no effect, 100 complete control
Outline: as §1

[7] = system: ducksalad (Heteranthera limosa); test: Test C flooded paddy test plant response; conditions: Flood, 250 g ai/ha, scale of 0 to 100 where 0 is no effect and 100 is complete control, 13 to 15 days
Outline: (§2)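 Scale 0 (no effect) to 100 (complete control), assigned visually versus controls after 13–15 d greenhouse. Application: directly to paddy water, 3 cm flood depth kept constant, 2-leaf stage.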

[8] = system: barnyardgrass (Echinochloa crus-galli); test: Test C flooded paddy test plant response; conditions: Flood, 250 g ai/ha, scale of 0 to 100 where 0 is no effect and 100 is complete control, 13 to 15 days
Outline: as §2

[9] = system: small-flower umbrella sedge (Cyperus difformis); test: Test C flooded paddy test plant response; conditions: Flood, 250 g ai/ha, scale of 0 to 100 where 0 is no effect and 100 is complete control, 13 to 15 days
Outline: as §2

rice (Oryza sativa) = test: Test C flooded paddy test plant response; conditions: Flood, 250 g ai/ha, scale of 0 to 100 where 0 is no effect and 100 is complete control, 13 to 15 days
Outline: as §2

[10] = system: ragweed (common ragweed, Ambrosia elatior); test: Test B pre-/postemergence plant response
Outline: (§3)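 Scoring used a 0–100 scale (100 = complete control) by visual comparison with untreated plants after approximately 10 days in the greenhouse. Compounds, in surfactant-containing non-phytotoxic solvent, were sprayed onto soil at planting or onto 2–10 cm seedlings.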

[11] = system: Italian ryegrass (Lolium multiflorum); test: Test B pre-/postemergence plant response
Outline: as §3

kochia (Kochia scoparia) = test: Test B pre-/postemergence plant response
Outline: as §3

[12] = 125 g ai/ha, postemergence, 0 to 100 scale, 0 no effect, 100 complete control
[13] = Postemergence, 500 g ai/ha, 0 to 100 scale (0 no effect, 100 complete control)
[14] = Preemergence, 125 g ai/ha, 0 to 100 scale (0 no effect, 100 complete control)
[15] = Preemergence, 500 g ai/ha, 0 to 100 scale where 0 is no effect and 100 is complete control
[16] = Postemergence, 31 g ai/ha, scale 0 to 100 (0 no effect, 100 complete control)
[17] = Postemergence, 62 g ai/ha, scale 0 to 100, 0 no effect, 100 complete control
[18] = 31 g ai/ha, Preemergence, 0 to 100 scale where 0 is no effect and 100 is complete control
[19] = Postemergence, 31 g ai/ha, 0 to 100 scale (0 no effect, 100 complete control)

Structure (SMILES): N#Cc1cccc(Oc2ncc(Cl)cn2)c1-c1cc(C(F)(F)F)ccn1 [Compound 158, 5-chloro-2-[3-cyano-2-[4-(trifluoromethyl)-2-pyridinyl]phenoxy]pyrimidine]
- pest or weed control at 125 g/ha ([1]; Chenopodium album, pre-emergence, Preemergence, 125 g ai/ha, read-out: Plant response rating (scale 0 to 100), Lambsquarters): 80%
- pest or weed control at 16 g/ha ([1]; Chenopodium album, pre-emergence, Preemergence, 16 g ai/ha, scale 0 to 100 (0 no effect, 100 complete control), read-out: Plant response rating, Lambsquarters): 75%
- pest or weed control at 31 g/ha ([1]; Chenopodium album, pre-emergence, Preemergence, 31 g ai/ha, scale 0 to 100 (0 no effect, 100 complete control), read-out: Plant response rating, Lambsquarters): 100%
- pest or weed control at 62 g/ha ([1]; Chenopodium album, pre-emergence, Preemergence, 62 g ai/ha, scale 0 to 100 (0 no effect, 100 complete control), read-out: Plant response rating, Lambsquarters): 100%
- pest or weed control at 125 g/ha ([2]; Galium, pre-emergence, Preemergence, 125 g ai/ha, read-out: Plant response rating (scale 0 to 100), Galium): 100%
- pest or weed control at 16 g/ha ([2]; Galium, pre-emergence, Preemergence, 16 g ai/ha, scale 0 to 100 (0 no effect, 100 complete control), read-out: Plant response rating, Galium): 0%
- pest or weed control at 31 g/ha ([2]; Galium, pre-emergence, Preemergence, 31 g ai/ha, scale 0 to 100 (0 no effect, 100 complete control), read-out: Plant response rating, Galium): 50%
- pest or weed control at 62 g/ha ([2]; Galium, pre-emergence, Preemergence, 62 g ai/ha, scale 0 to 100 (0 no effect, 100 complete control), read-out: Plant response rating, Galium): 100%
- pest or weed control at 125 g/ha ([3]; Abutilon theophrasti, pre-emergence, Preemergence, 125 g ai/ha, read-out: Plant response rating (scale 0 to 100), Velvetleaf): 70%
- pest or weed control at 16 g/ha ([3]; Abutilon theophrasti, pre-emergence, Preemergence, 16 g ai/ha, scale 0 to 100 (0 no effect, 100 complete control), read-out: Plant response rating, Velvetleaf): 35%
- pest or weed control at 31 g/ha ([3]; Abutilon theophrasti, pre-emergence, Preemergence, 31 g ai/ha, scale 0 to 100 (0 no effect, 100 complete control), read-out: Plant response rating, Velvetleaf): 25%
- pest or weed control at 62 g/ha ([3]; Abutilon theophrasti, pre-emergence, Preemergence, 62 g ai/ha, scale 0 to 100 (0 no effect, 100 complete control), read-out: Plant response rating, Velvetleaf): 40%
- plant injury at 125 g/ha ([4]; Brassica napus, pre-emergence, Preemergence, 125 g ai/ha, read-out: Plant response rating (scale 0 to 100), Oilseed Rape): 98%
- plant injury at 16 g/ha ([4]; Brassica napus, pre-emergence, Preemergence, 16 g ai/ha, scale 0 to 100 (0 no effect, 100 complete control), read-out: Plant response rating, Oilseed Rape): 40%
- plant injury at 31 g/ha ([4]; Brassica napus, pre-emergence, Preemergence, 31 g ai/ha, scale 0 to 100 (0 no effect, 100 complete control), read-out: Plant response rating, Oilseed Rape): 50%
- plant injury at 62 g/ha ([4]; Brassica napus, pre-emergence, Preemergence, 62 g ai/ha, scale 0 to 100 (0 no effect, 100 complete control), read-out: Plant response rating, Oilseed Rape): 90%
- pest or weed control at 125 g/ha ([5]; Lolium multiflorum, pre-emergence, Preemergence, 125 g ai/ha, read-out: Plant response rating (scale 0 to 100), Ryegrass, Italian): 20%
- pest or weed control at 16 g/ha ([5]; Lolium multiflorum, pre-emergence, Preemergence, 16 g ai/ha, scale 0 to 100 (0 no effect, 100 complete control), read-out: Plant response rating, Ryegrass, Italian): 0%
- pest or weed control at 31 g/ha ([5]; Lolium multiflorum, pre-emergence, Preemergence, 31 g ai/ha, scale 0 to 100 (0 no effect, 100 complete control), read-out: Plant response rating, Ryegrass, Italian): 0%
- pest or weed control at 62 g/ha ([5]; Lolium multiflorum, pre-emergence, Preemergence, 62 g ai/ha, scale 0 to 100 (0 no effect, 100 complete control), read-out: Plant response rating, Ryegrass, Italian): 0%
- plant injury at 125 g/ha (corn (Zea mays); Zea mays, pre-emergence, Preemergence, 125 g ai/ha, read-out: Plant response rating (scale 0 to 100), Corn): 15%
- Corn plant response rating (crop injury, 0 = no effect, 100 = complete kill) at 16 g/ha (corn (Zea mays); Zea mays, pre-emergence, Preemergence, 16 g ai/ha, scale 0 to 100 (0 no effect, 100 complete control)): 0%
- Corn plant response rating (crop injury, 0 = no effect, 100 = complete kill) at 31 g/ha (corn (Zea mays); Zea mays, pre-emergence, Preemergence, 31 g ai/ha, scale 0 to 100 (0 no effect, 100 complete control)): 0%
- Corn plant response rating (crop injury, 0 = no effect, 100 = complete kill) at 62 g/ha (corn (Zea mays); Zea mays, pre-emergence, Preemergence, 62 g ai/ha, scale 0 to 100 (0 no effect, 100 complete control)): 5%
- plant injury at 125 g/ha ([6]; Triticum aestivum, pre-emergence, Preemergence, 125 g ai/ha, read-out: Plant response rating (scale 0 to 100), Wheat): 0%
- plant injury at 16 g/ha ([6]; Triticum aestivum, pre-emergence, Preemergence, 16 g ai/ha, scale 0 to 100 (0 no effect, 100 complete control), read-out: Plant response rating, Wheat): 0%
- plant injury at 31 g/ha ([6]; Triticum aestivum, pre-emergence, Preemergence, 31 g ai/ha, scale 0 to 100 (0 no effect, 100 complete control), read-out: Plant response rating, Wheat): 0%
- plant injury at 62 g/ha ([6]; Triticum aestivum, pre-emergence, Preemergence, 62 g ai/ha, scale 0 to 100 (0 no effect, 100 complete control), read-out: Plant response rating, Wheat): 0%
- pest or weed control at 250 g/ha ([7]; Heteranthera limosa, read-out: Ducksalad plant response rating): 50%
- pest or weed control at 250 g/ha ([8]; Echinochloa crus-galli, read-out: Barnyardgrass plant response rating): 0%
- pest or weed control at 250 g/ha ([9]; Cyperus difformis, read-out: Sedge, Umbrella plant response rating): 0%
- plant injury at 250 g/ha (rice (Oryza sativa); Oryza sativa, read-out: Rice plant response rating): 0%
- Plant response rating, Ragweed [10, 12]: 0
- Plant response rating, Ragweed [10, 13]: 30
- Ragweed plant response rating [10, 14]: 0
- Plant response rating, Ragweed [10, 15]: 20
- Plant response rating, Ryegrass, Italian [11, 12]: 0
- Plant response rating, Ryegrass, Italian [11, 13]: 70
- Ryegrass, Italian plant response rating [11, 14]: 0
- Plant response rating, Ryegrass, Italian [11, 15]: 20
- Plant response rating, Kochia (kochia (Kochia scoparia); [12]): 70
- Plant response rating, Kochia (kochia (Kochia scoparia); [13]): 90
- Kochia plant response rating (kochia (Kochia scoparia); [14]): 100
- Plant response rating, Kochia (kochia (Kochia scoparia); [15]): 100

Structure (SMILES): FC(F)(Br)c1cc(-c2ccccc2Oc2ncc(Cl)cn2)no1 [Compound 162]
- Lambsquarters plant response rating [1, 16]: 65
- Plant response rating, Lambsquarters ([1]; Postemergence, 62 g ai/ha): 75
- Plant response rating, Lambsquarters ([1]; Postemergence, 125 g ai/ha): 95
- Galium plant response rating [2, 16]: 60
- Plant response rating, Galium ([2]; Postemergence, 62 g ai/ha): 60
- Plant response rating, Galium ([2]; Postemergence, 125 g ai/ha): 80
- Velvetleaf plant response rating [3, 16]: 40
- Plant response rating, Velvetleaf [3, 17]: 75
- Oilseed Rape plant response rating [4, 16]: 5
- Plant response rating, Oilseed Rape [4, 17]: 40
- Ryegrass, Italian plant response rating [5, 16]: 0
- Plant response rating, Ryegrass, Italian ([5]; Postemergence, 62 g ai/ha): 5
- Plant response rating, Ryegrass, Italian ([5]; Postemergence, 125 g ai/ha): 5
- Corn plant response rating (corn (Zea mays); 16 g ai/ha, scale 0 to 100 (0 no effect, 100 complete control)): 5
- Corn plant response rating (corn (Zea mays); 31 g ai/ha, scale 0 to 100 (0 no effect, 100 complete control)): 5
- Plant response rating, Corn (corn (Zea mays); 62 g ai/ha): 5
- Plant response rating, Corn (corn (Zea mays); 125 g ai/ha): 5
- Wheat plant response rating [6, 16]: 0
- Plant response rating, Wheat ([6]; Postemergence, 62 g ai/ha): 5
- Plant response rating, Wheat ([6]; Postemergence, 125 g ai/ha): 5
- Ducksalad plant response rating [7]: 0
- Barnyardgrass plant response rating [8]: 0
- Sedge, Umbrella plant response rating [9]: 0
- Rice plant response rating (rice (Oryza sativa)): 0
- Plant response rating, Ragweed [10, 18]: 0
- Plant response rating, Ragweed [10, 12]: 40
- Plant response rating, Ragweed [10, 19]: 0
- Ragweed plant response rating [10, 14]: 20
- Plant response rating, Ryegrass, Italian [11, 18]: 0
- Plant response rating, Ryegrass, Italian [11, 12]: 50
- Plant response rating, Ryegrass, Italian [11, 19]: 0
- Ryegrass, Italian plant response rating [11, 14]: 40
- Plant response rating, Kochia (kochia (Kochia scoparia); [18]): 70
- Plant response rating, Kochia (kochia (Kochia scoparia); [12]): 100
- Plant response rating, Kochia (kochia (Kochia scoparia); [19]): 90
- Kochia plant response rating (kochia (Kochia scoparia); [14]): 70
